Tests used:
[1] = tested on: HCV replicon RNA (GenBank Accession No. AJ242654); experiment: HCV Replicon Assay (replicon RNA reduction and/or Fluc reporter signal); type: cell-based, Hepatitis C virus; conditions: Hepatitis C virus, 72 h, replicon-containing cells cultured with test compound for up to 3 days
Outline: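 IC50 values mostly reflect the drop in replicon RNA, though Fluc reporter signal may also be used. Compound incubated with cells carrying the bicistronic replicon for as long as 3 days; interferon served as positive control.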

Compound	melting point [°C]	IC50 [1] [nM]
Cc1cc2c(C#N)c(-c3ccc(S(=O)(=O)N[C@@H](C)C(F)(F)F)cn3)n(C3CCC3)c2cn1 [Cpd 165, 6-(3-cyano-1-cyclobutyl-5-methyl-1H-pyrrolo[2,3-c]pyridin-2-yl)-N-[(2S)-1,1,1-trifluoropropan-2-yl]pyridine-3-sulfonamide]	185 to 188	500 to 2000
Cc1cc2c(C#N)c(-c3ccc(S(=O)(=O)N[C@H](C)C(F)(F)F)cn3)n(C3CCC3)c2cn1 [Cpd 166, 6-(3-cyano-1-cyclobutyl-5-methyl-1H-pyrrolo[2,3-c]pyridin-2-yl)-N-[(2R)-1,1,1-trifluoropropan-2-yl]pyridine-3-sulfonamide]	195 to 198	< 500
Cc1cc2c(C#N)c(-c3ccc(S(=O)(=O)N[C@@H](C)C(F)(F)F)cc3)n(C3CCC3)c2cn1 [Cpd 167, 4-(3-cyano-1-cyclobutyl-5-methyl-1H-pyrrolo[2,3-c]pyridin-2-yl)-N-[(2S)-1,1,1-trifluoropropan-2-yl]benzenesulfonamide]	188 to 191	< 500
Cc1cc2c(C#N)c(-c3ccc(S(=O)(=O)NC4(C)CC4)cn3)n(C3CCC3)c2cn1 [Cpd 168, 6-(3-cyano-1-cyclobutyl-5-methyl-1H-pyrrolo[2,3-c]pyridine-2-yl)-N-(1-methylcyclopropyl)pyridine-3-sulfonamide]	185 to 190	< 500
C[C@H](NS(=O)(=O)c1ccc(-c2c(C#N)c3cc(F)cnc3n2C2CCC2)nc1)C(F)(F)F [Cpd 169, 6-(3-cyano-1-cyclobutyl-5-fluoro-1H-pyrrolo[2,3-b]pyridin-2-yl)-N-[(2S)-1,1,1-trifluoropropan-2-yl]pyridine-3-sulfonamide]	172 to 174	< 500
Cc1cnc2c(C#N)c(-c3ccc(S(=O)(=O)N[C@@H](C)C(F)(F)F)cn3)n(C3CCCC3)c2c1 [Cpd 170, 6-(3-cyano-1-cyclopentyl-6-methyl-1H-pyrrolo[3,2-b]pyridin-2-yl)-N-[(2S)-1,1,1-trifluoropropan-2-yl]pyridine-3-sulfonamide]	210 to 212	< 500
Cc1cnc2c(C#N)c(-c3ccc(S(=O)(=O)N[C@H](C)C(F)(F)F)cn3)n(C3CCCC3)c2c1 [Cpd 171, 6-(3-cyano-1-cyclopentyl-6-methyl-1H-pyrrolo[3,2-b]pyridin-2-yl)-N-[(2R)-1,1,1-trifluoropropan-2-yl]pyridine-3-sulfonamide]	215 to 217	< 500
Cc1cnc2c(C#N)c(-c3ccc(S(=O)(=O)NC4(C(F)(F)F)CC4)cn3)n(C3CCCC3)c2c1 [Cpd 172, 6-(3-cyano-1-cyclopentyl-6-methyl-1H-pyrrolo[3,2-b]pyridin-2-yl)-N-[1-(trifluoromethyl)cyclopropyl]pyridine-3-sulfonamide]	249 to 251	< 500
Cc1cnc2c(C#N)c(-c3ccc(S(=O)(=O)NC(C)(C)C(F)(F)F)cn3)n(C3CCCC3)c2c1 [Cpd 173, 6-(3-cyano-1-cyclopentyl-6-methyl-1H-pyrrolo[3,2-b]pyridin-2-yl)-N-(1,1,1-trifluoro-2-methylpropan-2-yl)pyridine-3-sulfonamide]	265 to 267	< 500
Cc1cnc2c(C#N)c(-c3ccc(S(=O)(=O)NC4(C)CC4)cn3)n(C3CCCC3)c2c1 [Cpd 174, 6-(3-cyano-1-cyclopentyl-6-methyl-1H-pyrrolo[3,2-b]pyridin-2-yl)-N-(1-methylcyclopropyl)pyridine-3-sulfonamide]	215 to 217	< 500
Cc1cnc2c(C#N)c(-c3ccc(S(=O)(=O)NC(C)(C)C)cn3)n(C3CCCC3)c2c1 [Cpd 175, N-tert-butyl-6-(3-cyano-1-cyclopentyl-6-methyl-1H-pyrrolo[3,2-b]pyridin-2-yl)pyridine-3-sulfonamide]	267 to 269	< 500
Cc1cnc2c(C#N)c(-c3ccc(S(=O)(=O)NC(CF)CF)cn3)n(C3CCCC3)c2c1 [Cpd 176, 6-(3-cyano-1-cyclopentyl-6-methyl-1H-pyrrolo[3,2-b]pyridin-2-yl)-N-(1,3-difluoropropan-2-yl)pyridine-3-sulfonamide]	248 to 249	< 500
Cc1cnc2c(C#N)c(-c3ncc(S(=O)(=O)NC(CF)CF)cn3)n(C3CCCC3)c2c1 [Cpd 177, 2-(3-cyano-1-cyclopentyl-6-methyl-1H-pyrrolo[3,2-b]pyridin-2-yl)-N-(1,3-difluoropropan-2-yl)pyrimidine-5-sulfonamide]	256 to 258	< 500
Cc1cnc2c(C#N)c(-c3ncc(S(=O)(=O)NC(C)C)cn3)n(C3CCCC3)c2c1 [Cpd 178, 2-(3-cyano-1-cyclopentyl-6-methyl-1H-pyrrolo[3,2-b]pyridin-2-yl)-N-(propan-2-yl)pyrimidine-5-sulfonamide]	263 to 265	< 500
Cc1cnc2c(C#N)c(-c3ncc(S(=O)(=O)N[C@@H](C)C(F)(F)F)cn3)n(C3CCCC3)c2c1 [Cpd 179, 2-(3-cyano-1-cyclopentyl-6-methyl-1H-pyrrolo[3,2-b]pyridin-2-yl)-N-[(2S)-1,1,1-trifluoropropan-2-yl]pyrimidine-5-sulfonamide]	262 to 264	< 500
Cc1cnc2c(C#N)c(-c3ccc(S(=O)(=O)N[C@@H](C)C(F)(F)F)cc3)n(C3CCCC3)c2c1 [Cpd 180, 4-(3-cyano-1-cyclopentyl-6-methyl-1H-pyrrolo[3,2-b]pyridin-2-yl)-N-[(2S)-1,1,1-trifluoropropan-2-yl]benzenesulfonamide]	278 to 279	500 to 2000
Cc1cnc2c(C#N)c(-c3ccc(S(=O)(=O)N[C@H](C)C(F)(F)F)cc3)n(C3CCCC3)c2c1 [Cpd 181, 4-(3-cyano-1-cyclopentyl-6-methyl-1H-pyrrolo[3,2-b]pyridin-2-yl)-N-[(2R)-1,1,1-trifluoropropan-2-yl]benzenesulfonamide]	281 to 283	< 500
CCc1cnc2c(c1)c(C#N)c(-c1ccc(S(=O)(=O)NC(C)(C)C(F)(F)F)cc1)n2C1CCC1 [Cpd 182, 4-(3-cyano-1-cyclobutyl-5-ethyl-1H-pyrrolo[2,3-b]pyridin-2-yl)-N-(1,1,1-trifluoro-2-methylpropan-2-yl)benzenesulfonamide]	190 to 195	< 500
CCc1cnc2c(c1)c(C#N)c(-c1ccc(S(=O)(=O)NC3(C(F)(F)F)CC3)cc1)n2C1CCC1 [Cpd 183, 4-(3-cyano-1-cyclobutyl-5-ethyl-1H-pyrrolo[2,3-b]pyridin-2-yl)-N-[1-(trifluoromethyl)cyclopropyl]benzenesulfonamide]	161 to 168	500 to 2000
CCc1cnc2c(c1)c(C#N)c(-c1ccc(S(=O)(=O)NC3(C(F)(F)F)CC3)cn1)n2C1CCC1 [Cpd 184, 6-(3-cyano-1-cyclobutyl-5-ethyl-1H-pyrrolo[2,3-b]pyridin-2-yl)-N-[1-(trifluoromethyl)cyclopropyl]pyridine-3-sulfonamide]	216 to 221	< 500
CCc1cnc2c(c1)c(C#N)c(-c1ccc(S(=O)(=O)NC(C)(C)C)cc1)n2C1CCC1 [Cpd 185, N-tert-butyl-4-(3-cyano-1-cyclobutyl-5-ethyl-1H-pyrrolo[2,3-b]pyridin-2-yl)benzenesulfonamide]	190 to 196	< 500
CCc1cnc2c(c1)c(C#N)c(-c1ccc(S(=O)(=O)NC3(C)CC3)cc1)n2C1CCC1 [Cpd 187, 4-(3-cyano-1-cyclobutyl-5-ethyl-1H-pyrrolo[2,3-b]pyridin-2-yl)-N-(1-methylcyclopropyl)benzenesulfonamide]	157 to 163	< 500
CCc1cnc2c(c1)c(C#N)c(-c1ccc(S(=O)(=O)NC(CF)CF)cc1)n2C1CCC1 [Cpd 190, 4-(3-cyano-1-cyclobutyl-5-ethyl-1H-pyrrolo[2,3-b]pyridin-2-yl)-N-(1,3-difluoropropan-2-yl)benzenesulfonamide]	165 to 171	< 500
CCc1cnc2c(c1)c(C#N)c(-c1ccc(S(=O)(=O)NC(CF)CF)cn1)n2C1CCC1 [Cpd 191, 6-(3-cyano-1-cyclobutyl-5-ethyl-1H-pyrrolo[2,3-b]pyridin-2-yl)-N-(1,3-difluoropropan-2-yl)pyridine-3-sulfonamide]	157 to 165	500 to 2000
CCc1cnc2c(c1)c(C#N)c(-c1ccc(S(=O)(=O)NC3CCC3)cn1)n2C1CCC1 [Cpd 194, 6-(3-cyano-1-cyclobutyl-5-ethyl-1H-pyrrolo[2,3-b]pyridin-2-yl)-N-cyclobutylpyridine-3-sulfonamide]	168 to 177	< 500
CCc1cnc2c(c1)c(C#N)c(-c1ccc(S(=O)(=O)NC(C)C)nc1)n2C1CCC1 [Cpd 195, 5-(3-cyano-1-cyclobutyl-5-ethyl-1H-pyrrolo[2,3-b]pyridin-2-yl)-N-(propan-2-yl)pyridine-2-sulfonamide]	195 to 202	< 500
CCc1cnc2c(c1)c(C#N)c(-c1ncc(S(=O)(=O)NC(C)C)cn1)n2C1CCC1 [Cpd 196, 2-(3-cyano-1-cyclobutyl-5-ethyl-1H-pyrrolo[2,3-b]pyridin-2-yl)-N-(propan-2-yl)pyrimidine-5-sulfonamide]	170 to 178	< 500
C[C@@H](NS(=O)(=O)c1ccc(-c2c(C#N)c3cc(OC(F)F)cnc3n2C2CCC2)nc1)C(F)(F)F [Cpd 197, 6-[3-cyano-1-cyclobutyl-5-(difluoromethoxy)-1H-pyrrolo[2,3-b]pyridin-2-yl]-N-[(2R)-1,1,1-trifluoropropan-2-yl]pyridine-3-sulfonamide]	149 to 151	< 500

Source: US9593108B2, “Compounds and methods for antiviral treatment” (PTC Therapeutics, Inc., priority 2009, dated 2017)
